From patent US20260092085A1, “SYNTHETIC TRIPLEX PEPTIDE NUCLEIC ACID-BASED INHIBITORS FOR CANCER THERAPY” (University of Connecticut, priority 2022, published 2026)

Assays:
[1] = test system: miR-155; test: miR-155 gene expression by RT-PCR in SUDHL-2 cells; assay type: cell-based; conditions: SUDHL-2, 500 nM, 48 hours
Procedure: Data represented as mean±standard error mean (SEM). Unpaired two-tailed t-test was used for statistical analysis, **p<0.01. The analysis was performed relative to Scr-γtcPNA-155.
Similarly, 400,000 SUDHL-2 cells were seeded in a 12 well plate and treated with 500 nM Scr gamma tcPNA-155, PNA-155 and gamma tcPNA-155 for 48 hrs in an incubator (37° C. and 5% CO2). The RNA was extracted and the samples for gene expression were prepared in the same manner as described above.

[2] = test system: U2932 tumors; test: Immunostaining of Caspase-3 and Ki67 in treated U2932 tumors; assay type: in vivo, NSG mice; conditions: U2932 xenograft
Procedure: FIGS. 17A-D show in vivo studies in U2932 derived xenograft model. (17A) Biodistribution of γtcPNA-155 TAMRA in tumor sections (17B) Tumor volume fold change (n=6, data represented as mean±standard error mean (SEM), *p<0.05, **p<0.01, multiple t-tests one per row was used for statistical analysis). Asterisk denotes the analysis was performed relative to Scr-γtcPNA-155. Diamond symbol denotes the analysis was performed relative to PNA-155. (17C) Representative images showing the effects of Scr-γtcPNA-155, PNA-155, γPNA-155 and γtcPNA-155 on Caspase-3 immunostaining of tumor (magnification; ×20). Autofluorescence (AF) at 514 nm was used to show the tumor. Scale bar=[…]. (17D) Caspase-3 immunostaining quantification, *p<0.05. n=15. The n indicates the number of images.
FIGS. 21A-B show Ki-67 immunostaining (21A) and quantification (21B) in the in vivo treated tumors (n=15), **p<0.01. The n indicates the number of images. Scale bar=50 μm.
Histopathology and immunohistochemistry; The mice were sacrificed by CO2 inhalation when tumor volume reached 2000 mm^3. The tumor and vital organs (e.g., liver, kidney, spleen, lungs, heart) were carefully isolated, weighed, and fixed in the 10% NBF solution. The sections ([…]) of formalin-fixed paraffin-embedded liver and kidney were stained by hematoxylin and eosin for the histological analysis. […]

## γtcPNA-155: serine gamma tail-clamp anti-miR-155 PNA, RR-TJJJJ-OOO-ACCCCTATCACGATTAGCATTAA-RR, SEQ ID NO: 3 (all peptide nucleic acid (PNA); serine gamma PNA, tail-clamp TJJJJ via linkers, Arg-Arg at both ends)
[1]
  decrease in miR-155 gene expression: 63%
[2]
  Caspase-3 positive cells in tumor sections: increase
  Ki67 positive cells in tumor sections: significant decrease
